Reference: the NIST ThermoML archive (doi:10.1016/j.fluid.2011.11.030)
± gives the expanded uncertainty stated by the source.

Details: 101.33 kPa, Liquid; for viscosity: Capillary tube (Ostwald / Ubbelohde) method; for mass density: Pycnometric method

| viscosity (298.15 K) [mPa·s] | mass density (298.15 K) [kg/m3] | viscosity (323.15 K) [mPa·s] | mass density (323.15 K) [kg/m3] | viscosity (348.15 K) [mPa·s] | mass density (348.15 K) [kg/m3] | viscosity (373.15 K) [mPa·s] | mass density (373.15 K) [kg/m3] | Structure (SMILES) |
| --- | --- | --- | --- | --- | --- | --- | --- | --- |
| 30.1 ± 3.2 | 1065 ± 3 | 13.5 ± 1.6 | 1050 ± 3 | 7.7 ± 1.1 | 1036 ± 3 | 4.9 ± 0.9 | 1026 ± 3 | CCCCn1cc[n+](C)c1.N#CN=C=[N-] [1-butyl-3-methylimidazolium dicyanamide] |
| 205.5 ± 21 | 1185 ± 2 | 52.7 ± 5.3 | 1171 ± 2 | 21.3 ± 2.1 | 1154 ± 2 | 10.5 ± 1.1 | 1144 ± 2 | CCCC[n+]1ccc(C)cc1.F[B-](F)(F)F [1-butyl-4-methylpyridinium tetrafluoroborate] |
| 279.4 ± 29 | 1233 ± 2 | 79.8 ± 8.1 | 1215 ± 2 | 32.5 ± 3.3 | 1196 ± 2 | 15.3 ± 1.5 | 1176 ± 2 | CCCCCCCCn1cc[n+](C)c1.O=S(=O)([O-])C(F)(F)C(F)F |
